Measurements published in ChEMBL document CHEMBL4715878 (J Med Chem, 2020).
The source made the active and inactive calls. The calls are words filed in the database; no cut-off is given here.

What was measured:
MCF7 [1] = experiment: Potency index, ratio of lapatinib IC50 to test compound IC50 for antiproliferative activity against human MCF7 cells; type: functional
BT-474 [2] = experiment: Induction of apoptosis in human BT474 cells assessed as increase in early apoptotic cells at 0.5 to 5 uM incubated for 72 hrs by Annexin V-FITC/PI staining based flow cytometry analysis relative to control; type: functional; conditions: dose 0.5-5 µM
MDA-MB-231 [3] = experiment: Antiproliferative activity against human MDA-MB-231 cells assessed as reduction in cell viability incubated for 72 hrs by WST8 assay; type: functional, cell-based; conditions: MDA-MB-231, 72 h
BT-474 [4] = experiment: Induction of apoptosis in human BT474 cells assessed as increase in late apoptotic cells at 0.5 to 5 uM incubated for 72 hrs by Annexin V-FITC/PI staining based flow cytometry analysis relative to control; type: functional; conditions: dose 0.5-5 µM
BT-474 [5] = experiment: Induction of apoptosis in human BT474 cells assessed as increase in early apoptotic cells incubated for 72 hrs by Annexin V-FITC/PI staining based flow cytometry analysis; type: functional, cell-based; conditions: dose 0.1-5 µM
[6] = Selectivity ratio of IC50 for antiproliferative activity against human AU565 cells to IC50 for antiproliferative activity against human BT474 cells; type: functional
MCF7 [7] = experiment: Antiproliferative activity against human MCF7 cells assessed as reduction in cell viability incubated for 72 hrs by WST8 assay; type: functional, cell-based; conditions: MCF7, 72 h
BT-474 [8] = experiment: Antiproliferative activity against human BT474 cells assessed as reduction in cell viability incubated for 72 hrs by WST8 assay; type: functional, cell-based; conditions: BT-474, 72 h
AU565 = experiment: Antiproliferative activity against human AU565 cells assessed as reduction in cell viability incubated for 72 hrs by WST8 assay; type: functional, cell-based; conditions: AU565, 72 h
[9] = target: T1, Receptor tyrosine-protein kinase erbB-2 (Homo sapiens, UniProt P04626); experiment: Inhibition of HER2 (unknown origin) in presence of substrate incubated for 30 mins by ADP-Glo assay
T1 sequence (P04626 whole entry): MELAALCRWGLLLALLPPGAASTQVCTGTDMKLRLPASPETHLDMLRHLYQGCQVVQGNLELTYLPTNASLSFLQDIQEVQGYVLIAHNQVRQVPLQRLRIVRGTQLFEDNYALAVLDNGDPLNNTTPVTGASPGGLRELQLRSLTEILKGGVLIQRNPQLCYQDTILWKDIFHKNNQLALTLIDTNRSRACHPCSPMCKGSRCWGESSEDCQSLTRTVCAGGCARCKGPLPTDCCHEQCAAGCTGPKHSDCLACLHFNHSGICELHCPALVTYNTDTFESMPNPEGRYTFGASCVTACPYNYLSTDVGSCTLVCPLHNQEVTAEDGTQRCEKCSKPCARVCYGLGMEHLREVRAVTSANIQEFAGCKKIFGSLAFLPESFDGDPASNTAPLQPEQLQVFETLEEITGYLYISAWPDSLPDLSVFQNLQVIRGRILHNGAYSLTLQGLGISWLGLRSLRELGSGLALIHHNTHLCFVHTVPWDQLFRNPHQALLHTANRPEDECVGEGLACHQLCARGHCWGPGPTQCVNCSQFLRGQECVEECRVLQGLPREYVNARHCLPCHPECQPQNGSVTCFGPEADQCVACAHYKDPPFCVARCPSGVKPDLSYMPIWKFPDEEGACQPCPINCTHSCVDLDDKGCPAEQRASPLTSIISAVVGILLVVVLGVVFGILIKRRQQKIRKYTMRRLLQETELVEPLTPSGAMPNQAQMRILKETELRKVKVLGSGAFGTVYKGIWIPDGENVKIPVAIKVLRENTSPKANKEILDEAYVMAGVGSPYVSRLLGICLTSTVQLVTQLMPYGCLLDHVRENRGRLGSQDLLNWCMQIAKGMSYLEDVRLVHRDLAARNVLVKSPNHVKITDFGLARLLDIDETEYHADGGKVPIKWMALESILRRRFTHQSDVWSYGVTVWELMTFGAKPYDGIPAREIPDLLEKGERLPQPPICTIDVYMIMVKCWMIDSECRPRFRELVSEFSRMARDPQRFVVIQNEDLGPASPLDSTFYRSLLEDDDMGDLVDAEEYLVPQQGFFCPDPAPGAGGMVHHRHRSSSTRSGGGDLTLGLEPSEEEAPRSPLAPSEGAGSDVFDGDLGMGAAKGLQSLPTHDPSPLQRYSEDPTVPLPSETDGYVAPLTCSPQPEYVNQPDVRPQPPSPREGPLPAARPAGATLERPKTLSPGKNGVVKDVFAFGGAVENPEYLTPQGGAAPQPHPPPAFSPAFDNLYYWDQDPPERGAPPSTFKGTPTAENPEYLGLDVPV

MCF7 [10] = experiment: Induction of apoptosis in human MCF7 cells assessed as accumulation in early apoptotic cells at 5 uM incubated for 72 hrs by Annexin V-FITC/PI staining based flow cytometry analysis; type: functional, cell-based
MDA-MB-231 [11] = experiment: Induction of apoptosis in human MDA-MB-231 cells assessed as accumulation in late apoptotic cells at 5 uM incubated for 72 hrs by Annexin V-FITC/PI staining based flow cytometry analysis; type: functional, cell-based
BT-474 [12] = experiment: Induction of apoptosis in human BT474 cells assessed as increase in early apoptotic cells at 0.2 uM incubated for 72 hrs by Annexin V-FITC/PI staining based flow cytometry analysis relative to control; type: functional
MDA-MB-231 [13] = experiment: Induction of apoptosis in human MDA-MB-231 cells assessed as accumulation in early apoptotic cells at 5 uM incubated for 72 hrs by Annexin V-FITC/PI staining based flow cytometry analysis; type: functional, cell-based
[14] = target: T1, Receptor tyrosine-protein kinase erbB-2; experiment: Inhibition of wild-type HER2 (unknown origin) at 0.5 nM in presence of substrate incubated for 30 mins by ADP-Glo assay relative to control
MCF7 [15] = experiment: Induction of apoptosis in human MCF7 cells assessed as accumulation in late apoptotic cells at 5 uM incubated for 72 hrs by Annexin V-FITC/PI staining based flow cytometry analysis; type: functional, cell-based

| IC50 (MDA-MB-231 [3]) [nM] | IC50 (MCF7 [7]) [nM] | IC50 (BT-474 [8]) [nM] | IC50 [9] [nM] | inhibition [14] [%] | SMILES | Ratio IC50 (MCF7 [1]) | fold change (FC) (BT-474 [2]) | Activity (BT-474 [4]) | Activity (BT-474 [5]) | Ratio IC50 [6] | IC50 (AU565) [nM] | Activity (MCF7 [10]) | Activity (MDA-MB-231 [11]) | fold change (FC) (BT-474 [4]) | fold change (FC) (BT-474 [12]) | Activity (MDA-MB-231 [13]) | Activity (MCF7 [15]) |
| --- | --- | --- | --- | --- | --- | --- | --- | --- | --- | --- | --- | --- | --- | --- | --- | --- | --- |
| 6560 | 321 | 107 | – | – | CN(C)CC(=O)Nc1ccc2ncnc(Nc3ccc(Oc4cccc(F)c4)c(Cl)c3)c2c1 | <=20 | <=6 | inactive | Dose-dependent effect | 6 | 663 | – | – | – | – | – | – |
| 1360 | 1780 | 133 | 6.1 | 3 | CN1CCN(CC(=O)Nc2ccc3ncnc(Nc4ccc(OCc5cccc(F)c5)c(Cl)c4)c3c2)CC1 | <=20 | 10 | – | Dose-dependent effect | – | 134 | inactive | inactive | 2 | 7 | inactive | inactive |
